# Experimental data from patent US6914151B1, “Crystallization processes for the formation of stable crystals of aspartame derivative” (Ajinomoto Co., Inc., priority 1998, dated 2005).
# Legend:
# [1] = Stability test at 70° C. of crystals (remaining ratio of N-(3,3-dimethylbutyl)-APM); format: physicochemical
# Experimental: The resulting G-type crystals and A-type crystals of N-(3,3-dimethylbutyl)-APM were tested at 70° C., concerning their stability. […] The relationship between the storage time and the remaining ratio of N-(3,3-dimethylbutyl)-APM in this test will be shown below in Table 1.
# [2] = on the weight basis, cited from earlier work
SMILES,Remaining ratio ([1]; time elapsed 0 hrs),Remaining ratio ([1]; time elapsed 52 hrs),Remaining ratio ([1]; time elapsed 160 hrs),"Remaining ratio ([1]; time elapsed 160 hrs, listed as A-type crystals)",sweetening potency relative to aspartame ([2]; times that of aspartame),sweetening potency relative to sucrose ([2]; times that of sucrose (table sugar)),"Remaining ratio ([1]; time elapsed 160 hrs, listed as G-type crystals)"
"COC(=O)[C@H](Cc1ccccc1)NC(=O)[C@H](CC(=O)O)NCCC(C)(C)C [A, N-[N-(3,3-dimethylbutyl)-L-α-aspartyl]-L-phenylalanine methyl ester]",95 wt. %,95 wt. %,94 wt. %,94 wt. %,,,
"COC(=O)[C@H](Cc1ccccc1)NC(=O)[C@H](CC(=O)O)NCCC(C)(C)C [N-(3,3-dimethylbutyl)-ATM, N-[N-(3,3-dimethylbutyl)-L-α-aspartyl]-L-phenylalanine methyl ester]",,,,,at least 50 times,"about 10,000 times",
"COC(=O)[C@H](Cc1ccccc1)NC(=O)[C@H](CC(=O)O)NCCC(C)(C)C [G, N-[N-(3,3-dimethylbutyl)-L-α-aspartyl]-L-phenylalanine methyl ester, reference compound]",96 wt. %,87 wt. %,34 wt. %,,,,34 wt. %
